According to patent US20250064791A1, “5-[[4-[2-[5-(1-HYDROXYETHYL)PYRIDIN-2-YL]ETHOXY]PHENYL]METHYL]-1,3-THIAZOLIDINE-2,4-DIONE AND ITS SALTS FOR USE IN THE TREATMENT OF MITOCHONDRIAL DISEASES” (MINORYX THERAPEUTICS S.L., priority 2018, published 2025):

What was measured:
[1] = humans, compared with pioglitazone; from PCT/IB2017/057587; cited from earlier work
MDA MB231 KO cells = experiment: Mitochondrial respiration (OCR), Seahorse, MDA MB231 KO cells (MPC2 deleted); format: cell-based; conditions: MPC activity genetically deleted (MPC2 KO)
Protocol: (§1) To determine whether MIN-102 has any effect on pyruvate-mediated mitochondrial respiration, the extracellular flux analyzer Seahorse was used as described in Compan et al. Seahorse experiments were performed in the following cell lines: HeLa (Cervix cancer cells), A549 (lung cancer cells), wild type MDA MB 231, and MDA MB 231 in which MPC2 has been deleted, leading to inactivation of the MPC (MDA MB231 KO). MDA MB231 cells are epithelial breast cancer cells. Cells were incubated with increasing concentrations of the compounds for one hour at 37° C. before oxygen consumption rate (OCR) measurements. The Seahorse analyzer allowed to measure basal and maximal respiration measured upon depolarization with 1 μM CCCP.
(§2) The KO cells have been deleted of the MPC2 gene and therefore they display no MPC activity. […] OCR values are expressed as ratios of OCR in the presence of different concentrations of the tested compound over the OCR in PBS alone.

[2] = tested on: MCD diet fed C57BL6/J mice; experiment: Methionine Choline Deficient (MCD) diet NASH mouse model; format: in vivo, C57BL6/J male mice; conditions: 62.5 mg/kg BID orally
Protocol: The preventive effects of MIN-102 was evaluated in a 7-week Methionine Choline Deficient (MCD) diet NASH mouse model (Verdelho Machado et al.). After the acclimation period, C57BL6/J male mice (n=20) were weighed and randomized into 2 homogenous treatment groups based on body weight (n=10/group), put on a MCD diet, and treated BID orally with vehicle or MIN-102 for 7 weeks.
MIN-102 was dosed 62.5 mg/kg BID orally by gavage.
After the acclimation period, C57BL6/J male mice (n=20) were weighed and randomized into 2 homogenous treatment groups based on body weight (n=10/group), put on a MCD diet, and treated BID orally with a vehicle or MIN-102 (125 mg/Kg/day) for 7 weeks. Body weight was measured 3 times/week until the end of the experimental phase.
At 7 weeks of diet/treatment, mice were weighed and treated at ˜08:00 am in the morning, then bled (maximal volume/EDTA) at ˜1:00 pm. Plasma was then immediately isolated and stored at −80° C. prior to assay plasma ALT and AST. The plasma volume left over was stored at −80° C. for eventual additional analysis.
After blood collection, the mice were sacrificed by cervical dislocation under isoflurane anesthesia and exsanguinated with sterile saline.
Histology analysis was performed (oil red O, H&E and Sirius Red staining) for NAFLD scoring system (NAS) for liver steatosis, inflammation, fibrosis and hepatocyte ballooning.

adiponectin = experiment: Plasma adiponectin levels in Sprague Dawley rats (ELISA); format: in vivo; conditions: 54 mg/Kg/day for 7 days, plasma 1 h after last administration, vs vehicle
Protocol: Evaluation of the effect of Compounds of the Disclosure on adiponectin was performed in Sprague Dawley rats. The rats were treated for 7 days with repeated doses of MIN-102 at 54 mg/Kg/day. Plasma were obtained at 1 h after the last M1N-102 administration. Adiponectin levels were measured by ELISA. Results were represented as mean+standard error of the mean of n=8. Data were analyzed by Kruskal-Wallis followed by the Dunn post-hoc test versus the vehicle group (****,p<0.0001).

[3] = tested on: wild type MDA MB 231 cells; experiment: Mitochondrial respiration (OCR), Seahorse, wild type MDA MB231 cells; format: cell-based; conditions: cells with active MPC
Protocol: as §1, §2

[4] = target: mitochondrial pyruvate carrier (MPC) (Homo sapiens (Human), UniProt O95563+Q9Y5U8); experiment: MPC inhibitory activity, BRET assay in HEK cells; format: cell-based
Protocol: The MPC is a heterodimer composed of two subunits, MPC1 and MPC2. MPC1 and MPC2 interact to form an active carrier. In the assay, MPC2 was fused to Rluc8 (Donor) and MPC1 to Venus (Acceptor). These chimeric proteins were stably expressed in HEK cells. BRET activity was measured following addition of coelenterazine in the culture medium. Coelenterazine enters into cells and in contact with luciferase Rluc8 emits light, which activates the emission of fluorescence by the Acceptor, provided the distance between the Donor and Acceptor is <[…]. If the distance between Donor and Acceptor is >[…], no BRET activity is measured. The level of BRET activity reflects a change in the conformation of the MPC: it is high when the carrier is in a closed conformation, low when the carrier is at rest and intermediary when it transports pyruvate. In this case, the BRET activity is the mean value between the BRET value when the carrier is at rest (Maximal distance between Donor and Acceptor) and the BRET value when it is closed (Shortest distance between Donor and Acceptor)

mitochondrial pyruvate carrier (MPC), sequence (Q9Y5U8 whole entry, the tested form may be a part): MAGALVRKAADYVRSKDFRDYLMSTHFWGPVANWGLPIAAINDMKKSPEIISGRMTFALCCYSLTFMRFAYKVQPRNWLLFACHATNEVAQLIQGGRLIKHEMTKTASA
mitochondrial pyruvate carrier (MPC), sequence (O95563 whole entry, the tested form may be a part): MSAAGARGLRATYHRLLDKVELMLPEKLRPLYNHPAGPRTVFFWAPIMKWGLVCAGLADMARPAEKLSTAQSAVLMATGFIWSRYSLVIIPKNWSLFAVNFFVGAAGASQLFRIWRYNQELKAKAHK

Structure (SMILES)	variability in exposure (PK variability) [1]	effect on oxygen consumption (MDA MB231 KO cells)	hepatic cholesterol levels ([2]; 7 weeks)	oil red o staining % ([2]; 7 weeks, vs vehicle)	reduction in hepatic triglycerides levels ([2]; 7 weeks, vs vehicle) [%]	reduction of plasma ALT level ([2]; 7 weeks, vs vehicle) [%]	reduction of plasma AST level ([2]; 7 weeks, vs vehicle) [%]	Mean NAS group score ([2]; 7 weeks, histology)	liver inflammation ([2]; 7 weeks, histology)	steatosis score ([2]; 7 weeks, histology, vs vehicle)	body weight loss ([2]; day 14 to day 50, vs vehicle)	adiponectin levels in plasma (adiponectin)	effect on oxygen consumption [3]	IC50 [4] [nM]
CC(O)c1ccc(CCOc2ccc(CC3SC(=O)NC3=O)cc2)nc1 (racemic) [MIN-102, 5-[[4-[2-[5-(1-hydroxyethyl)pyridin-2-yl]ethoxy]phenyl]methyl]-1,3-thiazolidine-2,4-dione]	less variability in exposure than pioglitazone	does not inhibit oxygen consumption	did not show a change	extremely low	92	78	55	0.44±01	total disappearance of inflammation	blunted steatosis score	less severe decline in body weight loss	significantly increased	inhibits oxygen consumption in a MPC dependent manner	–
CN(CCOc1ccc(CC2SC(=O)NC2=O)cc1)c1ccccn1 (centres unmarked) [Rosiglitazone]	–	–	–	–	–	–	–	–	–	–	–	–	–	2000
